Assays:
Assay in all cases: Kinase profiling
Conditions in all cases: 0.1 or 1 μM inhibitor; mean of triplicate
PINK = PINK (Tribolium castaneum, UniProt D6WMX4); type: biochemical, insect
Description: Kinase inhibitor specificity profiling assays were carried out at The International Centre for Protein Kinase Profiling (http://www.kinase-screen.mrc.ac.uk/) against a panel of 140 protein kinases as described previously. Results are presented as a percentage of kinase activity in DMSO control reactions. Protein kinases were assayed in vitro with 0.1 or 1 μM of the inhibitors and the results are presented as an average of triplicate reactions±S.D. or in the form of comparative histograms.

MELK = MELK (Homo sapiens, UniProt Q14680); type: biochemical
Outline: (§1)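 Each kinase of a 140-member panel was assayed in vitro in the presence of 0.1 or 1 μM inhibitor, and activity was expressed as a percentage of DMSO control reactions. Triplicate reactions were averaged, reported ±S.D.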

YES1 = YES1 (Homo sapiens, UniProt P07947); type: biochemical
Outline: as §1

BRK = BRK (Homo sapiens, UniProt Q13882); type: biochemical
Outline: as §1

EPH-B4 = EPH-B4 (Homo sapiens, UniProt P54760); type: biochemical
GCK = GCK (Homo sapiens, UniProt Q12851); type: biochemical
PIM1 = PIM1 (Homo sapiens, UniProt P11309); type: biochemical
TAK1 = TAK1 (Homo sapiens, UniProt O43318); type: biochemical
Outline: as §1

MST3 = MST3 (Homo sapiens, UniProt Q9Y6E0); type: biochemical
TTK = TTK (Homo sapiens, UniProt P33981); type: biochemical
Outline: as §1

DAPK1 = DAPK1 (Homo sapiens, UniProt P53355); type: biochemical
Outline: as §1

CLK2 = CLK2 (Homo sapiens, UniProt P49760); type: biochemical
Outline: as §1

MAPKAP-K2 = MAPKAP-K2 (Homo sapiens, UniProt P49137); type: biochemical
Outline: as §1

ZAP70 = ZAP70 (Homo sapiens, UniProt P43403); type: biochemical
Outline: as §1

p38α MAPK = p38α MAPK (Homo sapiens, UniProt Q16539); type: biochemical
Outline: as §1

TSSK1 = TSSK1 (Homo sapiens, UniProt Q9BXA7); type: biochemical
MST2 = MST2 (Homo sapiens, UniProt Q13188); type: biochemical
Outline: as §1

MARK4 = MARK4 (Homo sapiens, UniProt Q96L34); type: biochemical
JNK1 = JNK1 (Homo sapiens, UniProt P45983); type: biochemical
CDK2-Cyclin A = CDK2-Cyclin A (Homo sapiens, UniProt P24941); type: biochemical
Outline: as §1

JNK3 = JNK3 (Homo sapiens, UniProt P53779); type: biochemical
Outline: as §1

PRK2 = PRK2 (Homo sapiens, UniProt Q16513); type: biochemical
p38γ MAPK = p38γ MAPK (Homo sapiens, UniProt P53778); type: biochemical
ERK8 = ERK8 (Homo sapiens, UniProt Q8TD08); type: biochemical
Outline: as §1

CDK9-Cyc T1 = CDK9-Cyc T1 (Homo sapiens, UniProt P50750); type: biochemical
SYK = SYK (Homo sapiens, UniProt P43405); type: biochemical
Outline: as §1

ZAP70, sequence (P43403 whole entry): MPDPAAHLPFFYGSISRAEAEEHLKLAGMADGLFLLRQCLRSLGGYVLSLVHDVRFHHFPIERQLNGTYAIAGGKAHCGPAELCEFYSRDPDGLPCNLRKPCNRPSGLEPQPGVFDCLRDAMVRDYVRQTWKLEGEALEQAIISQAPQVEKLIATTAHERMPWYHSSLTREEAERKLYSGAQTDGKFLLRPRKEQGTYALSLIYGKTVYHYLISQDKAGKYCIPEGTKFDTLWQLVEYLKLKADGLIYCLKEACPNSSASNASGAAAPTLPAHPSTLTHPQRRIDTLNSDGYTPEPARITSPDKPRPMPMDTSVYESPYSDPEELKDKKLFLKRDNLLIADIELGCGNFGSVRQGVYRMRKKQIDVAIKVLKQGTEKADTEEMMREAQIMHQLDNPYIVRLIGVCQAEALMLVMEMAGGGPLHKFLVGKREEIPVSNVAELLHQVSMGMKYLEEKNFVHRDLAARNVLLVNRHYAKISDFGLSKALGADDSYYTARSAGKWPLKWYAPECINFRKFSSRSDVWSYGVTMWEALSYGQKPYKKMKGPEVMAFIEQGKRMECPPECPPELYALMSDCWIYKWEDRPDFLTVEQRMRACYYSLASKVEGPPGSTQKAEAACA
TAK1, sequence (O43318 1-303 limits assumed): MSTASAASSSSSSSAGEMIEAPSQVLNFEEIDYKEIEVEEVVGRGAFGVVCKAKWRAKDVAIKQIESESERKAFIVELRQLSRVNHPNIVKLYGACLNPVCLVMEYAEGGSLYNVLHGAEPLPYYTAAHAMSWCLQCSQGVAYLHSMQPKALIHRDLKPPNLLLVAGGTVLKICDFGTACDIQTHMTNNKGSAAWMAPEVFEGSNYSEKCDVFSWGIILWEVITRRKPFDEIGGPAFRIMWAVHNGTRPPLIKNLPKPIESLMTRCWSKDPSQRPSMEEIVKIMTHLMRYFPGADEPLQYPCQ
PIM1, sequence (P11309 whole entry): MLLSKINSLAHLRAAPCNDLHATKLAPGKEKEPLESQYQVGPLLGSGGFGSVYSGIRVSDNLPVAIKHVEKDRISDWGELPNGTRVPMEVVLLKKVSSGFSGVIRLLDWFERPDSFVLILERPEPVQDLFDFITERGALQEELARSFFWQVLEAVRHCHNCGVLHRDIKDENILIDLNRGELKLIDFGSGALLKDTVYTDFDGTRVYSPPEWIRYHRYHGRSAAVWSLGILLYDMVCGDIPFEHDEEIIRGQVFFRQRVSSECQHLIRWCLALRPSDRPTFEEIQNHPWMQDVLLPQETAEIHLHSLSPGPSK
TSSK1, sequence (Q9BXA7 whole entry): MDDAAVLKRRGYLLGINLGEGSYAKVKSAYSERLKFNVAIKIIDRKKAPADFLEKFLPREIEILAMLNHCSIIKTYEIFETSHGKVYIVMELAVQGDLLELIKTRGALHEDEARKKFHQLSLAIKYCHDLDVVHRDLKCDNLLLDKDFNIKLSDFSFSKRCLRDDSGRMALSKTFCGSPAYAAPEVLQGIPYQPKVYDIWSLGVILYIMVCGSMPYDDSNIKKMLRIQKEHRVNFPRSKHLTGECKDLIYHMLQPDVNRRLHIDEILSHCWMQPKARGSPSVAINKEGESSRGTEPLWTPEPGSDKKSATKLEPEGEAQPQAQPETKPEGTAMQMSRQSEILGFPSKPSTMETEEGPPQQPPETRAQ
DAPK1, sequence (P53355 whole entry): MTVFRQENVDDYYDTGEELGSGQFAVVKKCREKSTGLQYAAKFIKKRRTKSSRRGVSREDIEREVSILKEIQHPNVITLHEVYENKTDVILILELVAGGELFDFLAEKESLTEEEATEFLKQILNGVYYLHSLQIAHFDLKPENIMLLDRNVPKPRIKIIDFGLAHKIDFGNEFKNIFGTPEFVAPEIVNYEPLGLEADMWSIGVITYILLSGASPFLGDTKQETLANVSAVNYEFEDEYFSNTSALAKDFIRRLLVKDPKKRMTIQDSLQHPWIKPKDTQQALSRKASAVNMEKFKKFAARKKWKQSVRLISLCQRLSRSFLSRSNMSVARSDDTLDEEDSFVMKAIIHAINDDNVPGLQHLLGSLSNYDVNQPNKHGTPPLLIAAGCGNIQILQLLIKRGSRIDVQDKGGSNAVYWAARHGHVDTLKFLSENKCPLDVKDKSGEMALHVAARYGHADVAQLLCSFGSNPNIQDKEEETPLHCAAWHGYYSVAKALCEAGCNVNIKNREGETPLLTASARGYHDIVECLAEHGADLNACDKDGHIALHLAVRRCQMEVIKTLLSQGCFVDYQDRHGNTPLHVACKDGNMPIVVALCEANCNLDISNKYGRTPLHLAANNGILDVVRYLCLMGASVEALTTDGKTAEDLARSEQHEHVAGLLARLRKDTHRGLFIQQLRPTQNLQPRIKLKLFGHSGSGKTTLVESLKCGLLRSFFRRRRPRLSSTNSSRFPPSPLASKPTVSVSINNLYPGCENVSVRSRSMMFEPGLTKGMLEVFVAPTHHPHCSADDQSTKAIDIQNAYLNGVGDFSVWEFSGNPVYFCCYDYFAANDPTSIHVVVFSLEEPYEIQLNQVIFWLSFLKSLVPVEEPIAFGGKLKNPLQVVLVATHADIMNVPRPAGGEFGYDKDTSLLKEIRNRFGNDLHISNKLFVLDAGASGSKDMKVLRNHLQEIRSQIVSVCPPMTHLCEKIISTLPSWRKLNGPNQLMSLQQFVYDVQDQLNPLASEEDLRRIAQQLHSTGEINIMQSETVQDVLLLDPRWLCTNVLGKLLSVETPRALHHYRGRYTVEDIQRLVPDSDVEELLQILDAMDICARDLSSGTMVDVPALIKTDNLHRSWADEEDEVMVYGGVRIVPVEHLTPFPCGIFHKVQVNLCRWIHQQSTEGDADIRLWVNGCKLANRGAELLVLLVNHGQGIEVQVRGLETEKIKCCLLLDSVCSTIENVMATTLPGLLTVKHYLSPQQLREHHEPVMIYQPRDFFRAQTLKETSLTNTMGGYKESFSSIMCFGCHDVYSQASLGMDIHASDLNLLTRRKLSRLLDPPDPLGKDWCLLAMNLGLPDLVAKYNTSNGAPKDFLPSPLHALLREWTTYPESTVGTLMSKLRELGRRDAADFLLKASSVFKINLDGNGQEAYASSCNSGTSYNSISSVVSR
ERK8, sequence (Q8TD08 whole entry): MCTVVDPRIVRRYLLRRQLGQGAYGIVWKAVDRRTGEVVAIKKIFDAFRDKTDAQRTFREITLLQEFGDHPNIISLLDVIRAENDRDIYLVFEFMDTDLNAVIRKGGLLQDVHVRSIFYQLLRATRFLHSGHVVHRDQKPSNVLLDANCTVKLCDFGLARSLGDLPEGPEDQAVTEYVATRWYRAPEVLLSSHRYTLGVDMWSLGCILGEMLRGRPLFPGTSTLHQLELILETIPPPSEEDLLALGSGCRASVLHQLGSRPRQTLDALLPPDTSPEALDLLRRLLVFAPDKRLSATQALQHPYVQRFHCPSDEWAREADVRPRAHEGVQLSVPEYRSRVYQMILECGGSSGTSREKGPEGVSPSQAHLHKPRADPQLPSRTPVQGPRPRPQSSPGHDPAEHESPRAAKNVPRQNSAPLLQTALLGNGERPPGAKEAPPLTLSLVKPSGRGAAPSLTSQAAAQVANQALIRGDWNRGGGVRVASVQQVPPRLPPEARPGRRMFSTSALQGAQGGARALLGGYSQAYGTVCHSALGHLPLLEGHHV
MST2, sequence (Q13188 whole entry): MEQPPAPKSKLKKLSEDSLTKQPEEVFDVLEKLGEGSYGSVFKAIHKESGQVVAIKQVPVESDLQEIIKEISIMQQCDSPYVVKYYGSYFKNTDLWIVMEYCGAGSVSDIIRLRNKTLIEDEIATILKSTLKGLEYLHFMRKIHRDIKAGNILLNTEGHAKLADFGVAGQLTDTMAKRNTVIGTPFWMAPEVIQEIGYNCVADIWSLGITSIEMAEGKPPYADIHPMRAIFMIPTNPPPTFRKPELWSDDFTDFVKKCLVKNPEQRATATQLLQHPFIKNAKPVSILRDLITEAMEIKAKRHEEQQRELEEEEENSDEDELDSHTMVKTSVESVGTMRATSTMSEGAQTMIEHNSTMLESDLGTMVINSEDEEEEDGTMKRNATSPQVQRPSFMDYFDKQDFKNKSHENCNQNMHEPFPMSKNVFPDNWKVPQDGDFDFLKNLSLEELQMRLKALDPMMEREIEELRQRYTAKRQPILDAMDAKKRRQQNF
MELK, sequence (Q14680 whole entry): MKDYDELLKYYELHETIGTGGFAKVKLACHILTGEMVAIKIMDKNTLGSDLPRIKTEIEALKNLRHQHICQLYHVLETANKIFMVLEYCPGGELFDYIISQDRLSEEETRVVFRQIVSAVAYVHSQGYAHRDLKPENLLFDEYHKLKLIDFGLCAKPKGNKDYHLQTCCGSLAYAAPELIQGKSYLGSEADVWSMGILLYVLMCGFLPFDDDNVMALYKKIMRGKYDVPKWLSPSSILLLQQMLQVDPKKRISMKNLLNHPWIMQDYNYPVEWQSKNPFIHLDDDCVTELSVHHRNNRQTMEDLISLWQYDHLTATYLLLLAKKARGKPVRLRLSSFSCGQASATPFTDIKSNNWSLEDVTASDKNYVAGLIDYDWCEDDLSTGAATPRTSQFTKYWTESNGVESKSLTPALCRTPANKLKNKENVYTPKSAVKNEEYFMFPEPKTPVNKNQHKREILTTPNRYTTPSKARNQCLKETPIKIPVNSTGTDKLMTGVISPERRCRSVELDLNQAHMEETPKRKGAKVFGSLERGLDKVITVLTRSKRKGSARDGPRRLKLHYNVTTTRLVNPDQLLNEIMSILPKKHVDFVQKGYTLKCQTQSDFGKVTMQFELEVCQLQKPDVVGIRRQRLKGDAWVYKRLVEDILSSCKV

For `Cc1nc(Nc2cnn(C3CCNCC3)c2)nc2c1N(C)C(=O)c1cc3ccccc3cc1N2C` [HTH-01-015], the “PINK activity, percentage of DMSO control” value (PINK) was 99 percentage, the “MELK activity, percentage of DMSO control” value (MELK) was 99 percentage and the “YES1 activity, percentage of DMSO control” value (YES1) was 76 percentage. The “BRK activity, percentage of DMSO control” value (BRK) was 96 percentage, the “EPH-B4 activity, percentage of DMSO control” value (EPH-B4) was 102 percentage and the “GCK activity, percentage of DMSO control” value (GCK) was 126 percentage. The “PIM1 activity, percentage of DMSO control” value (PIM1) was 92 percentage, the “TAK1 activity, percentage of DMSO control” value (TAK1) was 109 percentage and the “MST3 activity, percentage of DMSO control” value (MST3) was 111 percentage. For the same molecule, the “TTK activity, percentage of DMSO control” value (TTK) was 118 percentage, the “DAPK1 activity, percentage of DMSO control” value (DAPK1) was 100 percentage and the “CLK2 activity, percentage of DMSO control” value (CLK2) was 54 percentage. The “MAPKAP-K2 activity, percentage of DMSO control” value (MAPKAP-K2) was 118 percentage, the “ZAP70 activity, percentage of DMSO control” value (ZAP70) was 103 percentage and the “p38α MAPK activity, percentage of DMSO control” value (p38α MAPK) was 118 percentage. For the same molecule, the “TSSK1 activity, percentage of DMSO control” value (TSSK1) was 95 percentage, the “MST2 activity, percentage of DMSO control” value (MST2) was 118 percentage and the “MARK4 activity, percentage of DMSO control” value (MARK4) was 75 percentage. The “JNK1 activity, percentage of DMSO control” value (JNK1) was 100 percentage, the “CDK2-Cyclin A activity, percentage of DMSO control” value (CDK2-Cyclin A) was 96 percentage and the “JNK3 activity, percentage of DMSO control” value (JNK3) was 101 percentage. For the same molecule, the “PRK2 activity, percentage of DMSO control” value (PRK2) was 112 percentage, the “p38γ MAPK activity, percentage of DMSO control” value (p38γ MAPK) was 100 percentage and the “ERK8 activity, percentage of DMSO control” value (ERK8) was 98 percentage. For the same molecule, the “CDK9-Cyc T1 activity, percentage of DMSO control” value (CDK9-Cyc T1) was 68 percentage and the “SYK activity, percentage of DMSO control” value (SYK) was 125 percentage.
